Measurements reported in patent publication US9486506B2 (Novo Nordisk A/S, priority 2011, dated 2016).
Numbered stars: 1 amine (or outer) side, 2 acyl side, 3 side chain; on linkers, the order of the positions; unused ones are H or OH. Side chains are listed from the residue outwards. Peptide text beside a SMILES is read from it. * marks the point of attachment. X1 = O=C(CCCCCCCCCCCCCCCc1nnn[nH]1)NS(=O)(=O)CCCC(=O)*; C18 diacid = O=C(O)CCCCCCCCCCCCCCCCC(=O)*; γGlu = O=C(O)[C@H](CCC(=O)[*:2])N[*:1]; AEEA = NCCOCCOCC(=O)O

Tests used:
[1] = Assay (X) Chemical stability assessment by RP-UPLC; assay type: physicochemical; conditions: pH 8.15, 14 days at 37° C. vs 5° C., 333 μM
[2] = molecular target: T1, glucagon receptor (Homo sapiens, UniProt P47871); experiment: Assay (I) Glucagon activity (cAMP biosensor, FLIPR); assay type: cell-based
T1 construct: expressed in transfected cells
T1 sequence (P47871 26-477): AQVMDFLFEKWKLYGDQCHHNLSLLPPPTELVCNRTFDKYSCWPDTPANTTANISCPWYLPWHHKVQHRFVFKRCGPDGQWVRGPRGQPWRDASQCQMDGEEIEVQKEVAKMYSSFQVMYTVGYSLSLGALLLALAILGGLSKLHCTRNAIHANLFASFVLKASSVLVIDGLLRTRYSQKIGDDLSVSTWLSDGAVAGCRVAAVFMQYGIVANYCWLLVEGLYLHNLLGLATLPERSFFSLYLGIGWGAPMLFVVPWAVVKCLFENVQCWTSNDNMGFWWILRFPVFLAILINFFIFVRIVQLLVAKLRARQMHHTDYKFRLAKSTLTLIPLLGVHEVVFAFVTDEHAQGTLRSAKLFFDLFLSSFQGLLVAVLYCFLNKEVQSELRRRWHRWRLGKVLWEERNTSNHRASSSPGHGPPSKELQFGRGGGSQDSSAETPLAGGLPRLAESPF

| Compound | Chemical stability [Purity loss/14 days 37 C.] [1] [%] | EC50 [2] [nM] |
| --- | --- | --- |
| CC(C)C[C@H](NC(=O)[C@H](CC(=O)O)NC(=O)[C@H](CC(C)C)NC(=O)[C@H](Cc1ccc(O)cc1)NC(=O)[C@H](CCCNC(=N)N)NC(=O)[C@H](CO)NC(=O)[C@H](Cc1ccc(O)cc1)NC(=O)[C@H](CC(=O)O)NC(=O)[C@H](CO)NC(=O)[C@@H](NC(=O)[C@H](Cc1ccccc1)NC(=O)[C@@H](NC(=O)CNC(=O)[C@H](CCC(N)=O)NC(=O)[C@H](CO)NC(=O)[C@@H](N)Cc1c[nH]cn1)[C@@H](C)O)[C@@H](C)O)C(=O)N[C@@H](CCCNC(=N)N)C(=O)N[C@@H](CCCNC(=N)N)C(=O)N[C@@H](C)C(=O)N[C@@H](CCC(N)=O)C(=O)N[C@@H](CC(=O)O)C(=O)N[C@@H](Cc1ccccc1)C(=O)N[C@H](C(=O)N[C@@H](CCCCNC(=O)CC[C@H](NC(=O)CC[C@H](NC(=O)COCCOCCNC(=O)COCCOCCNC(=O)CCCS(=O)(=O)NC(=O)CCCCCCCCCCCCCCCc1nnn[nH]1)C(=O)O)C(=O)O)C(=O)N[C@@H](Cc1c[nH]c2ccccc12)C(=O)N[C@@H](CC(C)C)C(=O)N[C@@H](CC(C)C)C(=O)N[C@@H](CO)C(=O)N[C@H](C(=O)O)[C@@H](C)O)C(C)C [Example 68, N^ε24-[(4S)-4-carboxy-4-[[(4S)-4-carboxy-4-[[2-[2-[2-[[2-[2-[2-[4-[16-(1H-tetrazol-5-yl)hexadecanoylsulfannoyl]butanoylamino]ethoxy]ethoxy]acetyl]amino]ethoxy]ethoxy]acetyl]amino]butanoyl]amino]butanoyl]-[Arg12, Leu16, Lys24, Leu27,Ser28]-Glucagon] (H-HSQGTFTSDYSRYLDLRRAQDFVK([γGlu-γGlu-AEEA-AEEA-X1])WLLST-OH) | 5.6 | 0.357 |
| CC(C)C[C@H](NC(=O)[C@H](Cc1c[nH]c2ccccc12)NC(=O)[C@H](CCCCNC(=O)CC[C@H](NC(=O)COCCOCCNC(=O)COCCOCCNC(=O)CC[C@H](NC(=O)CC[C@H](NC(=O)CCCCCCCCCCCCCCCCC(=O)O)C(=O)O)C(=O)O)C(=O)O)NC(=O)[C@@H](NC(=O)[C@H](Cc1ccccc1)NC(=O)[C@H](CCC(=O)O)NC(=O)[C@H](CCC(N)=O)NC(=O)[C@H](C)NC(=O)[C@H](CCCNC(=N)N)NC(=O)[C@H](CCCNC(=N)N)NC(=O)[C@@H](NC(=O)[C@H](CC(=O)O)NC(=O)[C@H](CC(C)C)NC(=O)[C@H](Cc1ccc(O)cc1)NC(=O)[C@H](CCCCN)NC(=O)[C@H](CO)NC(=O)[C@@H](NC(=O)[C@H](CC(=O)O)NC(=O)[C@H](CO)NC(=O)[C@@H](NC(=O)[C@H](Cc1ccccc1)NC(=O)[C@@H](NC(=O)CNC(=O)[C@H](CCC(N)=O)NC(=O)[C@H](CO)NC(=O)[C@@H](N)Cc1c[nH]cn1)[C@@H](C)O)[C@@H](C)O)C(C)C)[C@@H](C)O)C(C)C)C(=O)N[C@@H](CC(C)C)C(=O)N[C@@H](CO)C(=O)N[C@H](C(N)=O)[C@@H](C)O [Example 61, N^ε24-[(4S)-4-carboxy-4-[[2-[2-[2-[[2-[2-[2-[[(4S)-4-carboxy-4-[[(4S)-4-carboxy-4-(17-carboxyheptadecanoylamino)butanoyl]amino]butanoyl]amino]ethoxy]ethoxy]acetyl]amino]ethoxy]ethoxy]acetyl]amino]butanoyl]-[Val10,Thr16,Glu21,Lys24,Leu27,Ser28]-Glucagon amide] (H-HSQGTFTSDVSKYLDTRRAQEFVK([γGlu-AEEA-AEEA-γGlu-γGlu-C18 diacid])WLLST-NH2) | 6.2 | 0.156 |
| CC[C@H](C)[C@H](NC(=O)[C@H](CC(=O)O)NC(=O)[C@H](CC(C)C)NC(=O)[C@H](Cc1ccc(O)cc1)NC(=O)[C@H](CCCNC(=N)N)NC(=O)[C@H](CO)NC(=O)[C@H](Cc1ccc(O)cc1)NC(=O)[C@H](CC(=O)O)NC(=O)[C@H](CO)NC(=O)[C@@H](NC(=O)[C@H](Cc1ccccc1)NC(=O)[C@@H](NC(=O)CNC(=O)[C@H](CCC(N)=O)NC(=O)[C@H](CO)NC(=O)[C@@H](N)Cc1c[nH]cn1)[C@@H](C)O)[C@@H](C)O)C(=O)N[C@@H](CCCNC(=N)N)C(=O)N[C@@H](CCCNC(=N)N)C(=O)N[C@@H](C)C(=O)N[C@@H](CCC(N)=O)C(=O)N[C@@H](CC(=O)O)C(=O)N[C@@H](Cc1ccccc1)C(=O)N[C@H](C(=O)N[C@@H](CCCCNC(=O)CC[C@H](NC(=O)CC[C@H](NC(=O)COCCOCCNC(=O)COCCOCCNC(=O)CC[C@H](NC(=O)CCCCCCCCCCCCCCCCC(=O)O)C(=O)O)C(=O)O)C(=O)O)C(=O)N[C@@H](Cc1c[nH]c2ccccc12)C(=O)N[C@@H](CC(C)C)C(=O)N[C@@H](CC(C)C)C(=O)N[C@@H](CO)C(=O)N[C@H](C(=O)O)[C@@H](C)O)C(C)C [Example 23, N^ε24-[(4S)-4-carboxy-4-[[(4S)-4-carboxy-4-[[2-[2-[2-[[2-[2-[2-[[(4S)-4-carboxy-4-(17-carboxyheptadecanoylamino)butanoyl]amino]ethoxy]ethoxy]acetyl]amino]ethoxy]ethoxy]acetyl]amino]butanoyl]amino]butanoyl]-[Arg^12,Ile^16,Lys^24,Leu^27,Ser^28]-Glucagon] (H-HSQGTFTSDYSRYLDIRRAQDFVK([γGlu-γGlu-AEEA-AEEA-γGlu-C18 diacid])WLLST-OH) | 3.1 | 1.04 |
| CC(C)C[C@H](NC(=O)[C@H](CC(C)C)NC(=O)[C@H](Cc1c[nH]c2ccccc12)NC(=O)[C@H](CCCCNC(=O)CC[C@H](NC(=O)CC[C@H](NC(=O)COCCOCCNC(=O)COCCOCCNC(=O)CC[C@H](NC(=O)CCCCCCCCCCCCCCCCC(=O)O)C(=O)O)C(=O)O)C(=O)O)NC(=O)[C@@H](NC(=O)[C@H](Cc1ccccc1)NC(=O)[C@H](CC(=O)O)NC(=O)[C@H](CCC(N)=O)NC(=O)[C@H](C)NC(=O)[C@H](CCCNC(=N)N)NC(=O)[C@H](CCCNC(=N)N)NC(=O)[C@H](CC(C)C)NC(=O)[C@H](CC(=O)O)NC(=O)[C@H](CC(C)C)NC(=O)[C@H](Cc1ccc(O)cc1)NC(=O)[C@H](CCCNC(=N)N)NC(=O)[C@H](CO)NC(=O)[C@H](Cc1ccc(O)cc1)NC(=O)[C@H](CC(=O)O)NC(=O)[C@H](CO)NC(=O)[C@@H](NC(=O)[C@H](Cc1ccccc1)NC(=O)[C@@H](NC(=O)CNC(=O)[C@H](CCC(N)=O)NC(=O)[C@H](CO)NC(=O)[C@@H](N)Cc1c[nH]cn1)[C@@H](C)O)[C@@H](C)O)C(C)C)C(=O)N[C@@H](C)C(=O)N[C@H](C(=O)O)[C@@H](C)O [Example 87, N^ε24-[(4S)-4-carboxy-4-[[(4S)-4-carboxy-4-[[2-[2-[2-[[2-[2-[2-[[(4S)-4-carboxy-4-(17-carboxyheptadecanoylamino)butanoyl]amino]ethoxy]ethoxy]acetyl]amino]ethoxy]ethoxy]acetyl]amino]butanoyl]amino]butanoyl]-[Arg12,Leu16,Lys24,Leu27,Ala28]-Glucagon] (H-HSQGTFTSDYSRYLDLRRAQDFVK([γGlu-γGlu-AEEA-AEEA-γGlu-C18 diacid])WLLAT-OH) | 5.8 | 0.253 |
| CC(C)C[C@H](NC(=O)[C@H](Cc1c[nH]c2ccccc12)NC(=O)[C@H](CCCCNC(=O)CC[C@H](NC(=O)CC[C@H](NC(=O)CC[C@H](NC(=O)CC[C@H](NC(=O)CCCCCCCCCCCCCCCCC(=O)O)C(=O)O)C(=O)O)C(=O)O)C(=O)O)NC(=O)[C@@H](NC(=O)[C@H](Cc1ccccc1)NC(=O)[C@H](CC(=O)O)NC(=O)[C@H](CCC(N)=O)NC(=O)[C@H](C)NC(=O)[C@H](CCCNC(=N)N)NC(=O)[C@H](CCCNC(=N)N)NC(=O)[C@@H](NC(=O)[C@H](CC(=O)O)NC(=O)[C@H](CC(C)C)NC(=O)[C@H](Cc1ccc(O)cc1)NC(=O)[C@H](CCCCN)NC(=O)[C@H](CO)NC(=O)[C@H](Cc1ccc(O)cc1)NC(=O)[C@H](CC(=O)O)NC(=O)[C@H](CO)NC(=O)[C@@H](NC(=O)[C@H](Cc1ccccc1)NC(=O)[C@@H](NC(=O)CNC(=O)[C@H](CCC(N)=O)NC(=O)[C@H](CO)NC(=O)[C@@H](N)Cc1c[nH]cn1)[C@@H](C)O)[C@@H](C)O)C(C)C)C(C)C)C(=O)N[C@@H](CC(C)C)C(=O)N[C@@H](CO)C(=O)N[C@H](C(N)=O)[C@@H](C)O [Example 76, N^ε24-[(4S)-4-carboxy-4-[[(4S)-4-carboxy-4-[[(4S)-4-carboxy-4-[[(4S)-4-carboxy-4-(17-carboxyheptadecanoylamino)butanoyl]amino]butanoyl]amino]butanoyl]amino]butanoyl]-[Val16,Lys24,Leu27,Ser28]-Glucagon amide] | 5.5 | 0.268 |
| CC(C)C[C@H](NC(=O)[C@H](Cc1ccc(O)cc1)NC(=O)[C@H](CCCNC(=N)N)NC(=O)[C@H](CO)NC(=O)[C@H](Cc1ccc(O)cc1)NC(=O)[C@H](CC(=O)O)NC(=O)[C@H](CO)NC(=O)[C@@H](NC(=O)[C@H](Cc1ccccc1)NC(=O)[C@@H](NC(=O)CNC(=O)[C@H](CCC(N)=O)NC(=O)[C@H](CO)NC(=O)[C@@H](N)Cc1c[nH]cn1)[C@@H](C)O)[C@@H](C)O)C(=O)N[C@@H](CC(=O)O)C(=O)N[C@@H](C)C(=O)N[C@@H](CCCNC(=N)N)C(=O)N[C@@H](CCCNC(=N)N)C(=O)N[C@@H](C)C(=O)N[C@@H](CCC(N)=O)C(=O)N[C@@H](CC(=O)O)C(=O)N[C@@H](Cc1ccccc1)C(=O)N[C@H](C(=O)N[C@@H](CCCCNC(=O)CC[C@H](NC(=O)CC[C@H](NC(=O)CC[C@H](NC(=O)CCCCCCCCCCCCCCCCC(=O)O)C(=O)O)C(=O)O)C(=O)O)C(=O)N[C@@H](Cc1c[nH]c2ccccc12)C(=O)N[C@@H](CC(C)C)C(=O)N[C@@H](CC(C)C)C(=O)N[C@@H](CO)C(=O)N[C@H](C(=O)O)[C@@H](C)O)C(C)C [Example 92, N^ε24-[(4S)-4-carboxy-4-[[(4S)-4-carboxy-4-[[(4S)-4-carboxy-4-(17-carboxyheptadecanoylamino)butanoyl]amino]butanoyl]amino]butanoyl]-[Arg12,Ala16,Lys24,Leu27,Ser28]-Glucagon] (H-HSQGTFTSDYSRYLDARRAQDFVK([γGlu-γGlu-γGlu-C18 diacid])WLLST-OH) | 6.5 | 0.066 |
